Assay results taken from ChEMBL document CHEMBL1914371, “Development of a bivalent dopamine D₂ receptor agonist” (J Med Chem, 2011).

Experiments:
D(4) dopamine receptor = target: T1, D(4) dopamine receptor (Homo sapiens, UniProt P21917); experiment: Displacement of [3H]spiperone from human dopamine D4.4 receptor expressed in chinese hamster CHO cells by radioligand binding assay; assay type: cell-based
T1 sequence (P21917 whole entry): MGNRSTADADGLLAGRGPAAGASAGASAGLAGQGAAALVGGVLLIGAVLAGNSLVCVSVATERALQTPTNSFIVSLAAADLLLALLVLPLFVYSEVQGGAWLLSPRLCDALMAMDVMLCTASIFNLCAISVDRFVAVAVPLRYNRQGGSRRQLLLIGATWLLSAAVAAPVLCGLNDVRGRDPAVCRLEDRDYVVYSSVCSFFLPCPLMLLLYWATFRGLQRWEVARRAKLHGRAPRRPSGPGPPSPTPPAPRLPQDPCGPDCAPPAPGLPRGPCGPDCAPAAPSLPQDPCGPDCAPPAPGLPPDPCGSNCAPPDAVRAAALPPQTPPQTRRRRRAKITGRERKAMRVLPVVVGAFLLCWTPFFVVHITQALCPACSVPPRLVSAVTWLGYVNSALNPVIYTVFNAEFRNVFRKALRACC

D(2) dopamine receptor [1] = target: T2, D(2) dopamine receptor (Homo sapiens, UniProt P14416); experiment: Displacement of [3H]spiperone from human DRD2 Long receptor expressed in chinese hamster CHO cells by radioligand binding assay; assay type: cell-based
T2 sequence (P14416 whole entry): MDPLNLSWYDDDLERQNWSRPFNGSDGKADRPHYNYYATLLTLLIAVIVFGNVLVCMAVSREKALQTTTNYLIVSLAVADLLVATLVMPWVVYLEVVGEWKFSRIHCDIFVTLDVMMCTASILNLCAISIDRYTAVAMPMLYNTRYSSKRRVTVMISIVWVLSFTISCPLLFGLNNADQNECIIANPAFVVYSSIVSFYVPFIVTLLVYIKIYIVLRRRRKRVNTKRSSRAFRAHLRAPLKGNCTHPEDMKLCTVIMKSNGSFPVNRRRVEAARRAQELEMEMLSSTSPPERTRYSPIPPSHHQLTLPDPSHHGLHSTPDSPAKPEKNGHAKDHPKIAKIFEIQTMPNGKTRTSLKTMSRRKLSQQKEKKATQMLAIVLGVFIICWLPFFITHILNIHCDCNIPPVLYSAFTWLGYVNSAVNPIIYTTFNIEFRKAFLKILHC

D(1A) dopamine receptor = D(1A) dopamine receptor (Sus scrofa, UniProt P50130); experiment: Displacement of [3H]SCH 23390 from pig dopamine D1 receptor in striatal membrane; assay type: cell membranes, Striatum
Sequence of D(1A) dopamine receptor (P50130 whole entry): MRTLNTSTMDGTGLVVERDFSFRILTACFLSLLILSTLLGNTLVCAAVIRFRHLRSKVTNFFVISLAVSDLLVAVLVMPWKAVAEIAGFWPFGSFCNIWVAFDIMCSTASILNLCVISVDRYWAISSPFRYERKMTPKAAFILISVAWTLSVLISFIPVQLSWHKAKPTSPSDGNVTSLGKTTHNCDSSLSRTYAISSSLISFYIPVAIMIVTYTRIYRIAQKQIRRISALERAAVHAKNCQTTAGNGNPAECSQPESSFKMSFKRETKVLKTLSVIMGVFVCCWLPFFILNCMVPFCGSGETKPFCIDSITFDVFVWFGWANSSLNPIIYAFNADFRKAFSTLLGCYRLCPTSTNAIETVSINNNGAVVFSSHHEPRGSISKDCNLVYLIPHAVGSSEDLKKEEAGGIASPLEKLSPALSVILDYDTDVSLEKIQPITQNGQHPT

D(3) dopamine receptor = D(3) dopamine receptor (Homo sapiens, UniProt P35462); experiment: Displacement of [3H]spiperone from human dopamine D3 receptor expressed in chinese hamster CHO cells by radioligand binding assay; assay type: cell-based
Sequence of D(3) dopamine receptor (P35462 whole entry): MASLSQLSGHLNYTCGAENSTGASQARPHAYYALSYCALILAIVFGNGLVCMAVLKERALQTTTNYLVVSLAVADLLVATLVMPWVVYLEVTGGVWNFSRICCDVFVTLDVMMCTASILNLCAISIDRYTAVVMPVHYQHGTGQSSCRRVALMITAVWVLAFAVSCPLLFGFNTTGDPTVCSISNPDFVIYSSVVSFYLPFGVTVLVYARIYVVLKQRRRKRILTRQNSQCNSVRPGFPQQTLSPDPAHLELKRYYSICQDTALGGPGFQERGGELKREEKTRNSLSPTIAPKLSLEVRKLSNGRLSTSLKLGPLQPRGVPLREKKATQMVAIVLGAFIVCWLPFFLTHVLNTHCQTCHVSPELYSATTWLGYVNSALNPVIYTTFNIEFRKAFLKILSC

D(2) dopamine receptor [2] = target: T2, D(2) dopamine receptor; experiment: Displacement of [3H]spiperone from human DRD2 short receptor expressed in chinese hamster CHO cells by radioligand binding assay; assay type: cell-based
D(2) dopamine receptor [3] = target: T2, D(2) dopamine receptor; experiment: Agonist activity at DRD2 Long receptor expressed in CHO cells assessed as inhibition of forskolin-stimulated cAMP accumulation by bioluminescence assay; assay type: functional, cell-based
D(2) dopamine receptor [4] = target: T2, D(2) dopamine receptor; experiment: Partial agonist activity at DRD2 Long receptor expressed in CHO cells assessed as inhibition of forskolin-stimulated cAMP accumulation by bioluminescence assay relative to quinpirole; assay type: functional, cell-based
D(2) dopamine receptor [5] = target: T2, D(2) dopamine receptor; experiment: Partial agonist activity at DRD2 Long receptor expressed in CHO cells assessed as inhibition of forskolin-stimulated cAMP accumulation by bioluminescence assay; assay type: functional, cell-based
D(2) dopamine receptor [6] = target: T2, D(2) dopamine receptor; experiment: Antagonist activity at DRD2 Long receptor expressed in CHO cells assessed as […] of forskolin-stimulated cAMP accumulation by bioluminescence assay relative to quinpirole; assay type: functional, cell-based

| SMILES | Ki (D(4) dopamine receptor) [nM] | Ki (D(2) dopamine receptor [1]) [nM] | Ki (D(1A) dopamine receptor) [nM] | Ki (D(3) dopamine receptor) [nM] | Ki (D(2) dopamine receptor [2]) [nM] | EC50 (D(2) dopamine receptor [3]) [nM] | Efficacy (D(2) dopamine receptor [4]) [%] | EC50 (D(2) dopamine receptor [5]) [nM] | Efficacy (D(2) dopamine receptor [6]) [%] |
| --- | --- | --- | --- | --- | --- | --- | --- | --- | --- |
| CCCCn1cc(CCCOc2ccc(C(=O)NCCCCN3CCN(c4ccccc4OC)CC3)cc2OC)nn1 | 84 | 17 | 1200 | 2 | 12 |  |  |  |  |
| COc1cc(C(=O)NCCCCN2CCN(c3ccccc3OC)CC2)ccc1OCCCc1cn(CCCCCCCCn2cc(CCCOc3ccc(C(=O)NCCCCN4CCN(c5ccccc5OC)CC4)cc3OC)nn2)nn1 | 660 | 110 | 2800 | 12 | 110 |  |  |  |  |
| CCCCn1cc(CCCOc2ccc(C(=O)NCCCCN(CCC)C3Cc4ccccc4C3)cc2OC)nn1 | 42 | 12 | 6000 | 0.71 | 4.1 | 13 |  |  |  |

Now those with a lower Ki (D(4) dopamine receptor), led by results:

| Ki (D(4) dopamine receptor) [nM] | Ki (D(2) dopamine receptor [1]) [nM] | Ki (D(1A) dopamine receptor) [nM] | Ki (D(3) dopamine receptor) [nM] | Ki (D(2) dopamine receptor [2]) [nM] | EC50 (D(2) dopamine receptor [3]) [nM] | Efficacy (D(2) dopamine receptor [4]) [%] | EC50 (D(2) dopamine receptor [5]) [nM] | Efficacy (D(2) dopamine receptor [6]) [%] | SMILES |
| --- | --- | --- | --- | --- | --- | --- | --- | --- | --- |
| 34 | 16 | 510 | 1.8 | 16 | 440 |  |  |  | CCCN(CCCCNC(=O)c1ccc(OCCCc2cn(CCCCCCCCn3cc(CCCOc4ccc(C(=O)NCCCCN(CCC)C5Cc6ccccc6C5)cc4OC)nn3)nn2)c(OC)c1)C1Cc2ccccc2C1 |
| 22 | 14 | 330 | 1.2 | 8.8 |  | 13 | 380 |  | CCCN(CCCCNC(=O)c1ccc(OCCCc2cn(CCCCCCCCn3cc(CCCOc4ccc(CN5CCN(c6ccccc6OC)CC5)cc4OC)nn3)nn2)c(OC)c1)C1Cc2ccccc2C1 |
| 40 | 25 | 200 | 2 | 17 |  |  |  | < 3 | CCCN(CCCCNC(=O)c1ccc(OCCCc2cn(CCCCCCCCn3cc(CCCOc4ccc(C(=O)NCCCCN5CCN(c6ccccc6OC)CC5)cc4OC)nn3)nn2)c(OC)c1)C1Cc2ccccc2C1 |
